Experimental data reported in the supplement of paper PMC12463676, “Small-molecule dissolution of stress granules by redox modulation benefits ALS models” (Nature Chemical Biology, 2025).

How the values were obtained:
lipoamide = compound: NC(=O)CCCCC1CCSS1 [lipoamide]; assay: thermal stability z-score vs DMSO; higher = more thermally stabilized by treatment; details: HeLa, lipoamide concentration 100 µM
Description: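 Cellular thermal proteome profiling in HeLa cells. Cells were treated with 100 µM lipoamide for 1 h, with or without 1 mM arsenate for a further 1 h, then heated to ten temperatures (37-66.3 °C), and soluble protein was quantified by TMT mass spectrometry relative to 0.1% DMSO controls. The thermal stability score (sum of log2 fold changes minus the abundance score) was transformed to a z-score; mean of n = 3 experiments.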

potassium arsenate = compound: O=[As]([O-])(O)O.[K+] [potassium arsenate]; assay: as above; details: HeLa; arsenate concentration 1 mM
Description: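 Cellular thermal proteome profiling in HeLa cells treated with 1 mM arsenate for 1 h (DMSO pretreatment), heated to ten temperatures (37-66.3 °C). Soluble protein was quantified by TMT mass spectrometry relative to DMSO controls; the thermal stability score was transformed to a z-score; mean of n = 3 experiments.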

[1] = arsenate co-treatment: 1 mM arsenate 1 h
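Also: each temperature applied for 3 min, abundance score taken as mean log2 fold change at the two lowest temperatures, z-score obtained by mean subtraction and division by SD.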

Chain of UniProt O43852 (O43852 whole entry): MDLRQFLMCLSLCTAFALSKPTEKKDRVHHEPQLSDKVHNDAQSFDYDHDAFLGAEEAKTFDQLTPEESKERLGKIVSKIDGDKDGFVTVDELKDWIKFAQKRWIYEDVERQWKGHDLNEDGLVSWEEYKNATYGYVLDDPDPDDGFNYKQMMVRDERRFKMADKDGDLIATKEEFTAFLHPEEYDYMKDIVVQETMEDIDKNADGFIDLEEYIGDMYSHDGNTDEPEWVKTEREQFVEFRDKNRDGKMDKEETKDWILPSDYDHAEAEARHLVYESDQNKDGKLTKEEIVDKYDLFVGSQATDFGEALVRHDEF
Chain of UniProt Q96P70 (Q96P70 whole entry): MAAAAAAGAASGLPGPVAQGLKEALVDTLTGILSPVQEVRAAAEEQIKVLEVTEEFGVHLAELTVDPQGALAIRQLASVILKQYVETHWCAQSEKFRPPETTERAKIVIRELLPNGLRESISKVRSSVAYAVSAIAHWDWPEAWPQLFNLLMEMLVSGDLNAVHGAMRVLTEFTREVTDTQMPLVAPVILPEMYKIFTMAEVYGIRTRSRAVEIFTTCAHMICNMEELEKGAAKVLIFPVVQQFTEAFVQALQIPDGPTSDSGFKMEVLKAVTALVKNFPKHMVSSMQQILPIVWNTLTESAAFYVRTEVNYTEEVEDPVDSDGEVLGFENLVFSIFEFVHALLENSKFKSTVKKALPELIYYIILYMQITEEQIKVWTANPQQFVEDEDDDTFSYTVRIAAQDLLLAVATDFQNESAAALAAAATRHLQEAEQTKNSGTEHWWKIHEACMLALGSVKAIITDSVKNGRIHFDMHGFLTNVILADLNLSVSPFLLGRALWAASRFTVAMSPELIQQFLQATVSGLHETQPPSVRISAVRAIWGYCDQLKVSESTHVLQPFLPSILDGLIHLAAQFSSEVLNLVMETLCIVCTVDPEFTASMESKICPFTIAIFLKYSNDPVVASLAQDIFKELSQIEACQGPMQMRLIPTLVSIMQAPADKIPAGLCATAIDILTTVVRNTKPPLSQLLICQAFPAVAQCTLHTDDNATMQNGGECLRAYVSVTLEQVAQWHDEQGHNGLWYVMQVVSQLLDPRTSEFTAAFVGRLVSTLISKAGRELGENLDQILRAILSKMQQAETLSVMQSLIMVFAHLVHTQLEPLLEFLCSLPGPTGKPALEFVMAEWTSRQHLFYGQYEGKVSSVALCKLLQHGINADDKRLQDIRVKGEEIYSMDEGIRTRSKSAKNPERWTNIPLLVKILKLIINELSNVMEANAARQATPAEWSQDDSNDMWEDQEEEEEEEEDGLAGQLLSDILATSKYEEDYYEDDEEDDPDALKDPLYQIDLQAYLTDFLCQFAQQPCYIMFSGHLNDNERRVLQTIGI
Chain of UniProt Q96SI9 (Q96SI9 whole entry): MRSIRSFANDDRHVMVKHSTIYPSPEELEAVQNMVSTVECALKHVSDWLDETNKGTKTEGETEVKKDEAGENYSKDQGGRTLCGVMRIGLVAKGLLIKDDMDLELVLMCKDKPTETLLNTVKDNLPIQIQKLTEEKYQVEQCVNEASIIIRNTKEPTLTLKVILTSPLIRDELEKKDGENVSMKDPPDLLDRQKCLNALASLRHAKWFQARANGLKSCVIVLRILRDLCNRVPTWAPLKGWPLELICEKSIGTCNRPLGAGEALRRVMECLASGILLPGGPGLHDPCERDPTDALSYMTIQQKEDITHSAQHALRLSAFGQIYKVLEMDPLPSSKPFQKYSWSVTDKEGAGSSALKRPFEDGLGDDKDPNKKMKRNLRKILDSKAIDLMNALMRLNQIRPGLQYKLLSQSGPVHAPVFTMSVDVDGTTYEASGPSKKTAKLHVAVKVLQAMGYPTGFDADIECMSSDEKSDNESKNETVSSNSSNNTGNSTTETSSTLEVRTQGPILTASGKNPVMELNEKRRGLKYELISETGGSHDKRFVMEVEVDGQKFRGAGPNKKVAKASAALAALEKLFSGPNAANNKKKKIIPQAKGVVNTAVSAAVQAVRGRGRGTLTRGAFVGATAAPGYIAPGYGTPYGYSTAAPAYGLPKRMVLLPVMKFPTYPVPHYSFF
Chain of UniProt Q9H999 (Q9H999 whole entry, looked up): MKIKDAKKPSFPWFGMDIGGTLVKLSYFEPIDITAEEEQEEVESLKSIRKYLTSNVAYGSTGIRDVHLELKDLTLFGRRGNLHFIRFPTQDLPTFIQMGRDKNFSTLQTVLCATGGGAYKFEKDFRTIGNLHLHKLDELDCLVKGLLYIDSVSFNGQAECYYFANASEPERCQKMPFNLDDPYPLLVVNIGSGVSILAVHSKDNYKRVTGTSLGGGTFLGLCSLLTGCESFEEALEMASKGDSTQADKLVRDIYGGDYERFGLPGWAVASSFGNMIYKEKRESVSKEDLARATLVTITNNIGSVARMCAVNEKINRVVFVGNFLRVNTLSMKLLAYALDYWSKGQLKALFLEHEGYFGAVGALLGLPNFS
Chain of UniProt Q9BV23 (Q9BV23 whole entry): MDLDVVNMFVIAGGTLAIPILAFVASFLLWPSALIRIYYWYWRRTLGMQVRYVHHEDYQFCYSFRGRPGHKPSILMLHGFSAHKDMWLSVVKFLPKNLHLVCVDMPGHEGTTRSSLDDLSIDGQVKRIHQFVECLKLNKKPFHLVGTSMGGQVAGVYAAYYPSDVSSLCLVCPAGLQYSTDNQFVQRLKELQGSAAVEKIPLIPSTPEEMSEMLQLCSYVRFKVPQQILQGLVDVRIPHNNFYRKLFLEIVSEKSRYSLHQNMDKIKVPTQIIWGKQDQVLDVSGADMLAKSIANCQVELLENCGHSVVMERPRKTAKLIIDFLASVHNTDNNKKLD
Chain of UniProt Q6ZNB6 (Q6ZNB6 whole entry): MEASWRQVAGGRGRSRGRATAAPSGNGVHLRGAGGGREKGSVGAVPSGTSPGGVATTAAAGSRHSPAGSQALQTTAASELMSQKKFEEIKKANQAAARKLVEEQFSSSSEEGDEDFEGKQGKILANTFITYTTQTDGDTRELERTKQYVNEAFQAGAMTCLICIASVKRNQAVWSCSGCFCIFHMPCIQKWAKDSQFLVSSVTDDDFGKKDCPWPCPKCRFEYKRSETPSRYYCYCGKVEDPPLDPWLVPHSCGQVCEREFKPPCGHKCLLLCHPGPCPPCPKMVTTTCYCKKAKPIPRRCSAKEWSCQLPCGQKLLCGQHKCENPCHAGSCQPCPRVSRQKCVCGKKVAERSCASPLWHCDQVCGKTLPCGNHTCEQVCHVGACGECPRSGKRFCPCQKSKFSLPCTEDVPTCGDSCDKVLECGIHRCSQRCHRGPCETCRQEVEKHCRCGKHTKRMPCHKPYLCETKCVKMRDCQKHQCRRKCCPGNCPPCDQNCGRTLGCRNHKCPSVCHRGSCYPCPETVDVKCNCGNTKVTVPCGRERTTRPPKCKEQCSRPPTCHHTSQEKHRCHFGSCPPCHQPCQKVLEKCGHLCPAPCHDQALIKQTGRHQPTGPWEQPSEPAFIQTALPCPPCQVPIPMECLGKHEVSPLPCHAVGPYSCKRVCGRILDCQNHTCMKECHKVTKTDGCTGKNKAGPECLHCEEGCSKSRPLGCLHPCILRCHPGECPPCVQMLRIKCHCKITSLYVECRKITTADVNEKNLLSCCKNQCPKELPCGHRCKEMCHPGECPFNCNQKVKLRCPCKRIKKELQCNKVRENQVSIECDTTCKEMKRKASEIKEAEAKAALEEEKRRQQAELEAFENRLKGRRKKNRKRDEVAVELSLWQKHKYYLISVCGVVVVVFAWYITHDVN
Chain of UniProt P15151 (P15151 whole entry): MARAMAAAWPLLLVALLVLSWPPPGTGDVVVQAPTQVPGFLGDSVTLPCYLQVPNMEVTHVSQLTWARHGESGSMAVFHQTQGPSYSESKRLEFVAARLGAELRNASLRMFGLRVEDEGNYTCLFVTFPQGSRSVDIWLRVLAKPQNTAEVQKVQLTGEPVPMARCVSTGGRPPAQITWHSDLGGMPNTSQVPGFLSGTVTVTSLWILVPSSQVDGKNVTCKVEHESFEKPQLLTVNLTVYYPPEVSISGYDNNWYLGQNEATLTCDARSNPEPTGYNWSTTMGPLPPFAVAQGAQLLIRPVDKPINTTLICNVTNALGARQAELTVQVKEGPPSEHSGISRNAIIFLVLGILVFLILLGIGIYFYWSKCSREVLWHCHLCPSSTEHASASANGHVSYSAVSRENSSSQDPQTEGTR
Chain of UniProt Q9Y6B6 (Q9Y6B6 whole entry): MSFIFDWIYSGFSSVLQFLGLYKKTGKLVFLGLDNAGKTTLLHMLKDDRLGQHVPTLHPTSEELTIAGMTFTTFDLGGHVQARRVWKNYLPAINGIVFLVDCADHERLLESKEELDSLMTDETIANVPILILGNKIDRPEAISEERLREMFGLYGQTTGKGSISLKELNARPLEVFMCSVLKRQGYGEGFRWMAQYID
Chain of UniProt Q9BXF6 (Q9BXF6 whole entry): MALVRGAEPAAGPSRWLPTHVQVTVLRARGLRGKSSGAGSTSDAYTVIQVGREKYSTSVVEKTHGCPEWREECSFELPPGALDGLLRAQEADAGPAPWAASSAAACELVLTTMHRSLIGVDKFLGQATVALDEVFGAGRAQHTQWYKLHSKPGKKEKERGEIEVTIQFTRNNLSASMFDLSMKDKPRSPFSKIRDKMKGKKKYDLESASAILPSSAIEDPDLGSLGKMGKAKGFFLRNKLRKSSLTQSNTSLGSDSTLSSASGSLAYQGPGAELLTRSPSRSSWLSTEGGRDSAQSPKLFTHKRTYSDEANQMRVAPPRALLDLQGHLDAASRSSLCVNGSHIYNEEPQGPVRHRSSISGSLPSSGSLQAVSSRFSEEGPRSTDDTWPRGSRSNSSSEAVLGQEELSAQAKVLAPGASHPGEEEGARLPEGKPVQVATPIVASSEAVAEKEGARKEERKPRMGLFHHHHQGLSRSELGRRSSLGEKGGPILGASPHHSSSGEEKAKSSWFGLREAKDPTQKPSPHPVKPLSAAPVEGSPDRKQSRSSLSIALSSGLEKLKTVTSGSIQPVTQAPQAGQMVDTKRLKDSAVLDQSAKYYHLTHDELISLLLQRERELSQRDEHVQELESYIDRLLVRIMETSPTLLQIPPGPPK

Target	thermal stability z-score (lipoamide; [1])	thermal stability z-score (lipoamide; arsenate co-treatment: none)	thermal stability z-score (potassium arsenate)
NHS (UniProt Q6T4R5)	-0.604	0.0609	-0.851
LIN54 (UniProt Q6MZP7)	0.0767	-0.0219	0.0147
DLG3 (UniProt Q92796)	-0.116	0.02	-0.395
PCMT1 (UniProt P22061)	0.993	0.908	0.245
TTC1 (UniProt Q99614)	-0.0842	0.337	-0.104
IPO9 (UniProt Q96P70)	0.178	-0.179	0.165
GOLGB1 (UniProt Q14789)	-0.345	-0.0596	0.886
C4BPA (UniProt P04003)	-5.7	-5.12	1.08
ABHD6 (UniProt Q9BV23)	-1.6	-1.07	-0.179
DOHH (UniProt Q9BU89)	-0.0847	0.18	0.721
FAM8A1 (UniProt Q9UBU6)	-0.425	-0.579	-0.315
SSFA2 (UniProt P28290)	-0.0444	-0.00989	-0.392
PMPCA (UniProt Q10713)	-0.137	-0.112	0.0736
CDC42EP4 (UniProt Q9H3Q1)	-0.323	-0.652	0.499
DLGAP5 (UniProt Q15398)	-0.352	-0.378	-0.0873
UBR1 (UniProt Q8IWV7)	-0.198	0.193	-0.191
MYO9B (UniProt Q13459)	-0.266	-0.1	-0.364
DIDO1 (UniProt Q9BTC0)	0.835	0.516	-1.37
PANK3 (UniProt Q9H999)	1.22	0.571	0.672
ADSS (UniProt P30520)	0.449	-0.203	-1.32
CALU (UniProt O43852)	0.0232	0.235	0.255
COL5A1 (UniProt P20908)	-1.41	-1.55	0.375
ABCF1 (UniProt Q8NE71)	-0.384	-0.353	1.14
ITSN1 (UniProt Q15811)	-0.734	-0.15	0.365
DDX49 (UniProt Q9Y6V7)	-0.368	-0.359	-0.153
KLHL42 (UniProt Q9P2K6)	-0.26	-0.0102	-0.142
ATG4A (UniProt Q8WYN0)	0.167	0.0706	-0.744
CTIF (UniProt O43310)	-0.164	0.404	0.233

Target	thermal stability z-score (lipoamide; [1])	thermal stability z-score (lipoamide; arsenate co-treatment: none)	thermal stability z-score (potassium arsenate)
CAP1 (UniProt Q01518)	0.524	0.502	-0.0608
PPP2R2D (UniProt Q66LE6)	-0.473	-0.0425	0.0879
PSMA6 (UniProt P60900)	0.746	0.795	0.345
SLC37A4 (UniProt O43826)	1.26	-0.205	-0.212
ASPSCR1 (UniProt Q9BZE9)	0.207	-0.218	-0.304
RBM3 (UniProt P98179)	0.0805	-0.138	0.167
EEF1D (UniProt P29692)	0.303	0.257	-0.0726
FLJ13984|METTL8	-0.0305	-0.13	0.187
PPIH (UniProt O43447)	0.218	-0.34	-0.183
SAR1B (UniProt Q9Y6B6)	0.0537	0.376	0.0901
DAGLB (UniProt Q8NCG7)	0.268	0.278	0.0163
NFXL1 (UniProt Q6ZNB6)	-0.724	-0.558	-0.813
PPP1R8 (UniProt Q12972)	0.0226	-0.142	0.412
RAB11FIP5 (UniProt Q9BXF6)	0.135	-1.43	0.895
PVR (UniProt P15151)	-0.158	-0.0762	0.0637
U2SURP (UniProt O15042)	0.962	0.428	0.507
CASP7 (UniProt P55210)	0.596	0.147	-0.753
CANT1 (UniProt Q8WVQ1)	0.0524	0.482	-0.0872
BEGAIN (UniProt Q9BUH8)	-0.0429	-0.117	0.144
STRBP (UniProt Q96SI9)	0.867	0.71	0.571
GBAS (UniProt O75323)	0.0991	0.0331	-0.187
CAPZA1 (UniProt P52907)	-0.236	0.183	0.38
C1ORF123 (UniProt Q9NWV4)	-0.384	-0.409	-0.929
ADAR (UniProt P55265)	0.419	0.448	-1.48
DBNL (UniProt Q9UJU6)	0.473	0.208	0.99
KIAA0930 (UniProt Q6ICG6)	0.193	0.227	0.706
CCT2 (UniProt P78371)	0.119	-0.107	-0.0294
